According to publication PMC7506137, “Selective Phosphodiesterase 1 Inhibitor BTTQ Reduces Blood Pressure in Spontaneously Hypertensive and Dahl Salt Sensitive Rats: Role of Peripheral Vasodilation” (Frontiers in Physiology, 2020):
Read-outs that look alike come from different tables or passages of the source.

Experiment: Plasma exposure (dried blood spot) after single oral dose
Format: in vivo
Settings: male, Sprague Dawley, rat, whole blood (dried blood spot), po
Protocol: Male Sprague Dawley rats at 6 to 7 weeks were dosed orally by p.o. gavage with different doses of BTTQ formulated in 1% hydroxyethlycellulose (Dow Corning, Midland, MI, United States) (w/v), 0.25% polysorbate 80 (Sigma-Aldrich, St. Louis, MO, United States) (v/v), and 0.05% antifoam (v/v; Dow Corning, Midland, MI, United States) in purified water. Following dosing, ear temperature was measured by using a k-type thermocouple probe digital thermometer (Cole Parmer) every hour for 6 h and then at 24 h. Blood samples for plasma exposure measurement were obtained at the same time. Blood was collected via a tail snip directly into a 20-μL EDTA-coated capillary and immediately spotted onto a Whatman DMPK-C DBS card (GE Healthcare Bio-Sciences). Tail snips were performed by removing approximately 1 mm of the tail by using a scalpel. Blood flow was initiated by gentle squeezing of the tail. No analgesia or anesthesia was used during blood collections. A single sample and spot were collected per time point. The DBS cards were allowed to dry for approximately 2 h at room temperature, after which the cards were placed in a zip-top bag, stored, and shipped at ambient temperature.

[1] = 0.03 mg/kg, oral 0.03 mg/kg, FU 0.053, read-out: Unbound Concentration, Mean
[2] = 0.03 mg/kg, oral 0.03 mg/kg, dried blood spot, read-out: Concentration, Mean
[3] = 0.03 mg/kg, oral 0.03 mg/kg, FU 0.053, read-out: Unbound Concentration, individual animals
[4] = 0.03 mg/kg, oral 0.03 mg/kg, dried blood spot, read-out: Concentration, individual animals
[5] = 0.1 mg/kg, oral 0.1 mg/kg, FU 0.053, read-out: Unbound Concentration, Mean
[6] = 0.1 mg/kg, oral 0.1 mg/kg, FU 0.053, read-out: Unbound Concentration, individual animals
[7] = 0.1 mg/kg, oral 0.1 mg/kg, dried blood spot, read-out: Concentration, Mean
[8] = 0.1 mg/kg, oral 0.1 mg/kg, dried blood spot, read-out: Concentration, individual animals
[9] = 0.3 mg/kg, oral 0.3 mg/kg, FU 0.053, read-out: Unbound Concentration, Mean
[10] = 0.3 mg/kg, oral 0.3 mg/kg, FU 0.053, read-out: Unbound Concentration, individual animals
[11] = 0.3 mg/kg, oral 0.3 mg/kg, dried blood spot, read-out: Concentration, Mean
[12] = 0.3 mg/kg, oral 0.3 mg/kg, dried blood spot, read-out: Concentration, individual animals
[13] = 1 mg/kg, oral 1 mg/kg, FU 0.053, read-out: Unbound Concentration, Mean

- concentration at 1 h [1]: 2.52 nM
- concentration at 1 h [2]: 47.5 nM
- concentration at 2 h [1]: 2.66 nM
- concentration at 2 h [3]: 2.17 nM
- concentration at 2 h [2]: 50.2 nM
- concentration at 2 h [4]: 40.9 nM
- concentration at 3 h [1]: 2.23 nM
- concentration at 3 h [3]: 2.04 nM
- concentration at 3 h [2]: 42.1 nM
- concentration at 3 h [4]: 38.4 nM
- concentration at 4 h [1]: 1.81 nM
- concentration at 4 h [3]: 1.67 nM
- concentration at 4 h [2]: 34.2 nM
- concentration at 4 h [4]: 31.6 nM
- concentration at 5 h [1]: 1.5 nM
- concentration at 5 h [3]: 1.86 nM
- concentration at 5 h [2]: 28.3 nM
- concentration at 5 h [4]: 35.1 nM
- concentration at 6 h [1]: 1.16 nM
- concentration at 6 h [2]: 22 nM
- concentration at 24 h [1]: 0 nM
- concentration at 24 h [2]: 0 nM
- concentration at 1 h [5]: 10.6 nM
- concentration at 1 h [6]: 13.2 nM
- concentration at 1 h [7]: 201 nM
- concentration at 1 h [8]: 249 nM
- concentration at 2 h [5]: 10 nM
- concentration at 2 h [6]: 11.7 nM
- concentration at 2 h [7]: 189 nM
- concentration at 2 h [8]: 220 nM
- concentration at 3 h [5]: 8.98 nM
- concentration at 3 h [6]: 8.9 nM
- concentration at 3 h [7]: 169 nM
- concentration at 3 h [8]: 168 nM
- concentration at 4 h [5]: 6.75 nM
- concentration at 4 h [6]: 7.1 nM
- concentration at 4 h [7]: 127 nM
- concentration at 4 h [8]: 134 nM
- concentration at 5 h [5]: 5.13 nM
- concentration at 5 h [6]: 5.99 nM
- concentration at 5 h [7]: 96.9 nM
- concentration at 5 h [8]: 113 nM
- concentration at 6 h [5]: 4.61 nM
- concentration at 6 h [6]: 4.62 nM
- concentration at 6 h [7]: 87 nM
- concentration at 6 h [8]: 87.1 nM
- concentration at 24 h [5]: 0.462 nM
- concentration at 24 h [6]: 2.31 nM
- concentration at 24 h [7]: 8.7 nM
- concentration at 24 h [8]: 43.5 nM
- concentration at 1 h [9]: 27.7 nM
- concentration at 1 h [10]: 24.2 nM
- concentration at 1 h [11]: 523 nM
- concentration at 1 h [12]: 456 nM
- concentration at 2 h [9]: 23.7 nM
- concentration at 2 h [10]: 19.3 nM
- concentration at 2 h [11]: 447 nM
- concentration at 2 h [12]: 364 nM
- concentration at 3 h [9]: 16.6 nM
- concentration at 3 h [10]: 14.7 nM
- concentration at 3 h [11]: 314 nM
- concentration at 3 h [12]: 278 nM
- concentration at 4 h [9]: 11.8 nM
- concentration at 4 h [10]: 12.3 nM
- concentration at 4 h [11]: 223 nM
- concentration at 4 h [12]: 232 nM
- concentration at 5 h [9]: 8.68 nM
- concentration at 5 h [10]: 8.75 nM
- concentration at 5 h [11]: 164 nM
- concentration at 5 h [12]: 165 nM
- concentration at 6 h [9]: 6.73 nM
- concentration at 6 h [10]: 7.26 nM
- concentration at 6 h [11]: 127 nM
- concentration at 6 h [12]: 137 nM
- concentration at 24 h [9]: 0 nM
- concentration at 24 h [11]: 0 nM
- concentration at 1 h [13]: 92.5 nM
- concentration at 1 h (1 mg/kg, oral 1 mg/kg, dried blood spot, read-out: Concentration, Mean): 1750 nM
- concentration at 2 h [13]: 87.6 nM
SMILES: O=c1c2nnc(C3(C4CC4)CC3)n2c2c(n1CC1CC1)CCCC2 [BTTQ, 1-[1,1′-bi(cyclopropyl)-1-yl]-5-(cyclopropylmethyl)-6,7,8,9-tetrahydro[1,2,4]triazolo[4,3-A]quinoxaline-4(5H)-one]
